Reference: paper PMC11664589, “A Versatile “Synthesis Tag” (SynTag) for the Chemical Synthesis of Aggregating Peptides and Proteins” (Journal of the American Chemical Society, 2024)
Starred links: 1 amine or outer side, 2 acyl side, 3 side chain; linkers in the order of their positions; H or OH if unused. Non-standard residues stand in square brackets, D forms with d. Residues, ends and D or L forms follow the SMILES beside them. No end group written: not given here. X1 = C[C@H](N[*:1])C(=O)n1c(=O)n(C)c2ccc(C(=O)[*:2])cc21

Columns and labels:
[1] = UHPLC elution as indicator of hydrophilicity; assay type: physicochemical; settings: standard UHPLC conditions, 214 nm; with versus without SynTag
[2] = once synthesized; cited from earlier work
Description: Amyloid-β is a biologically relevant peptide that is investigated for its role in Alzheimer’s disease (Figure 5D). The peptide is notoriously difficult to synthesize because it severely aggregates at the very beginning of the synthesis (i.e., residues 27–42).

hydrophilicity by UHPLC elution / peak shape (in words) [1]	Compound	solubility (in words) [2]
increased hydrophilicity	CC[C@H](C)[C@H](NC(=O)[C@H](C)NC(=O)CNC(=O)[C@@H](N)CCCCN)C(=O)N[C@H](C(=O)NCC(=O)N[C@@H](CC(C)C)C(=O)N[C@@H](CCSC)C(=O)N[C@H](C(=O)NCC(=O)NCC(=O)N[C@H](C(=O)N[C@H](C(=O)N[C@H](C(=O)N[C@@H](C)C(=O)n1c(=O)n(C)c2ccc(C(=O)N[C@@H](CCCNC(=N)N)C(=O)N[C@@H](CCCNC(=N)N)C(=O)N[C@@H](CCCNC(=N)N)C(=O)N[C@@H](CCCNC(=N)N)C(=O)N[C@@H](CCCNC(=N)N)C(=O)N[C@@H](CCCNC(=N)N)C(N)=O)cc21)[C@@H](C)CC)C(C)C)C(C)C)C(C)C)[C@@H](C)CC [Aβ42[27–42]-SynTag] (H-KGAIIGLMVGGVVI[X1]RRRRRR-NH2)	
	Amyloid-β: biologically relevant peptide investigated for its role in Alzheimer’s disease	barely soluble
elutes later than Aβ42[27–42]-MeNbz-Arg6	KGAIIGLMVGGVVIA-NH2 [Aβ42[27–42]]	
